Measured values as given in the supplement of paper PMC10331698.
± gives the standard deviation of the averaged measurements.

How the values were obtained:
Assay in all cases: level (log10 ratio to DMSO vehicle control); higher = higher biomarker level / cell amount than vehicle control
[1] = compound: O=S(=O)(OCC(F)(F)F)C(F)(F)C(F)(F)C(F)(F)C(F)(F)F [2,2,2-Trifluoroethyl perfluorobutanesulfonate]; details: in DMSO
Method: (§1)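 BioMAP Diversity Plus panel of 12 human primary cell co-culture systems (3C, 4H, LPS, SAg, BT, BF4T, BE3C, CASM3C, HDF3CGF, KF3CT, MyoF, Mphg). Compounds were added 1 h before stimulation and left for 24 h (MyoF 48 h; BT 72 h for soluble read-outs or 6 d for IgG). Biomarkers were read by ELISA, cytotoxicity by SRB, PBMC viability and proliferation by Alamar Blue. Each well value was divided by the mean of 8 DMSO control wells on the same plate and log10 transformed; duplicate blinded samples were tested at 4 concentrations.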

[2] = compound: OCC(F)(F)C(F)(F)C(F)(F)C(F)(F)C(F)(F)C(F)(F)C(F)(F)C(F)(F)CO [1H,1H,10H,10H-Perfluorodecane-1,10-diol]; details: in DMSO
Method: as §1

[3] = compound: FC(F)(F)COC(OCC(F)(F)F)OCC(F)(F)F [tris(Trifluoroethoxy)methane]; details: in DMSO
Method: as §1

[4] = compound: FC(F)(F)C(F)(F)C(F)(F)C(F)(F)CCI [1H,1H,2H,2H-Perfluorohexyl iodide]; details: in DMSO
Method: as §1

[5] = compound: C=CC(=O)OCC(F)(F)C(F)(F)C(F)(F)C(F)(F)C(F)(F)C(F)(F)C(F)(F)C(F)F [1H,1H,9H-Perfluorononyl acrylate]; details: in DMSO
Method: as §1

[6] = compound: Cc1ccc(S(=O)(=O)OCC(F)(F)C(F)(F)C(F)(F)C(F)(F)C(F)(F)C(F)F)cc1 [1H,1H,7H-Perfluoroheptyl 4-methylbenzenesulfonate]; details: in DMSO
Method: as §1

[7] = compound: C=CC(=O)OCC(F)(F)C(F)(F)C(F)(F)C(F)(F)COC(=O)C=C [1H,1H,6H,6H-Perfluorohexane-1,6-diol diacrylate]; details: 6700 nM; in DMSO
Method: as §1

Row | Test System | level (log10) ([1]; 6700 nM) | level (log10) ([1]; 20000 nM) | level (log10) ([1]; 60000 nM) | level (log10) ([2]; 6700 nM) | level (log10) ([2]; 20000 nM) | level (log10) ([2]; 60000 nM) | level (log10) ([3]; 6700 nM) | level (log10) ([3]; 20000 nM) | level (log10) ([3]; 60000 nM) | level (log10) ([4]; 6700 nM) | level (log10) ([4]; 20000 nM) | level (log10) ([4]; 60000 nM) | level (log10) ([5]; 6700 nM) | level (log10) ([5]; 20000 nM) | level (log10) ([5]; 60000 nM) | level (log10) ([6]; 6700 nM) | level (log10) ([6]; 20000 nM) | level (log10) ([6]; 60000 nM) | level (log10) [7]
1 | KF3CT:IL-1alpha | -0.011 ± 0.03 | -0.003 ± 0.011 | 0.0195 ± 0.0078 | 0.005 ± 0.027 | -0.01 ± 0.021 | 0.109 | -0.0045 ± 0.0078 | -0.0055 ± 0.0092 | 0.0055 ± 0.019 | 0.0115 ± 0.037 | 0.0105 ± 0.015 | 0.051 ± 0.0071 | 0.021 ± 0.0042 | 0.023 ± 0.031 | 0.018 ± 0.0085 | -0.053 ± 0.024 | -0.01 ± 0.024 | 0.013 ± 0.038 | -0.0545 ± 0.035
2 | lMphg:M-CSF | 0.035 ± 0.017 | 0.014 ± 0.018 | -0.006 ± 0.021 | -0.0155 ± 0.005 | -0.031 | -0.097 | -0.012 ± 0.0071 | -0.025 ± 0.035 | -0.0135 ± 0.029 | -0.018 ± 0.017 | -0.0275 ± 0.018 | 0.0185 ± 0.0035 | 0.0155 ± 0.04 | -0.0225 ± 0.018 | -0.042 ± 0.025 | -0.0295 ± 0.005 | -0.0305 ± 0.0035 | -0.016 | -0.0105 ± 0.015
3 | MyoF:SRB | 0.0005 ± 0.011 | -0.009 ± 0.014 | -0.0255 ± 0.021 | -0.012 | -0.019 ± 0.017 | -0.098 | -0.0045 ± 0.0035 | -0.001 ± 0.0014 | 0.005 ± 0.0042 | 0.008 ± 0.0042 | 0.0055 ± 0.012 | 0.004 ± 0.018 | -0.0055 ± 0.0078 | -0.016 ± 0.0042 | -0.0725 ± 0.019 | -0.004 ± 0.018 | -0.021 ± 0.0085 | -0.024 ± 0.0014 | -0.0185 ± 0.013
4 | lMphg:CCL3/MIP-1alpha | -0.025 ± 0.052 | -0.078 ± 0.054 | -0.119 ± 0.018 | -0.0375 ± 0.005 | -0.02 ± 0.016 | -0.473 | -0.03 ± 0.021 | -0.035 ± 0.024 | -0.0245 ± 0.018 | -0.0185 ± 0.00071 | -0.0515 ± 0.023 | -0.013 ± 0.014 | 0.015 | 0.012 ± 0.023 | 0.061 ± 0.0028 | -0.007 ± 0.0014 | 0.0145 ± 0.0021 | 0.0465 ± 0.033 | -0.0045 ± 0.07
5 | MyoF:Collagen III | -0.013 ± 0.0085 | -0.006 ± 0.016 | -0.0365 ± 0.005 | -0.0305 ± 0.0092 | -0.042 ± 0.0099 | -0.378 | 0.0035 ± 0.0035 | -0.0005 ± 0.019 | 0.009 ± 0.0042 | 0.0045 ± 0.0092 | -0.007 ± 0.0014 | -0.007 ± 0.021 | 0.0015 ± 0.005 | -0.029 ± 0.011 | -0.102 ± 0.0014 | -0.0075 ± 0.00071 | -0.0495 ± 0.022 | -0.056 ± 0.02 | -0.037 ± 0.045
6 | MyoF:Decorin | 0.0135 ± 0.066 | 0.027 ± 0.014 | 0.008 ± 0.052 | 0.004 ± 0.027 | -0.0005 ± 0.042 | 0.007 | 0.017 ± 0.025 | 0.0235 ± 0.013 | 0.0245 ± 0.021 | 0.0085 ± 0.012 | 0.011 ± 0.025 | 0.024 ± 0.075 | -0.014 ± 0.024 | -0.0655 ± 0.0021 | -0.065 ± 0.052 | 0.0065 ± 0.033 | 0.0045 ± 0.025 | 0.073 ± 0.05 | -0.083 ± 0.011
7 | HDF3CGF:CCL2/MCP-1 | -0.0125 ± 0.021 | 0.0255 ± 0.021 | -0.0205 ± 0.033 | -0.01 | -0.0565 ± 0.036 | -0.724 | 0.0035 ± 0.06 | 0.006 ± 0.051 | 0.0165 ± 0.035 | -0.0045 ± 0.005 | 0.0155 ± 0.012 | 0.007 ± 0.021 | -0.0315 ± 0.03 | -0.045 ± 0.03 | -0.0815 ± 0.046 | -0.0645 ± 0.026 | -0.108 ± 0.013 | -0.091 ± 0.0042 | -0.437 ± 0.0028
8 | 3C:CD62E/E-Selectin | -0.0085 ± 0.013 | -0.0385 ± 0.021 | -0.0045 ± 0.016 | -0.0065 ± 0.005 | -0.0275 ± 0.0092 | -0.082 | -0.022 ± 0.0014 | -0.0185 ± 0.0078 | -0.0245 ± 0.0035 | -0.003 ± 0.0042 | -0.0225 ± 0.018 | 0.005 ± 0.014 | -0.005 | -0.019 ± 0.0099 | -0.014 ± 0.018 | -0.0085 ± 0.005 | -0.03 ± 0.0057 | -0.081 ± 0.016 | -0.066 ± 0.0057
9 | HDF3CGF:CD106/VCAM-1 | -0.022 ± 0.0099 | -0.05 ± 0.034 | -0.114 ± 0.037 | -0.038 ± 0.016 | -0.0995 ± 0.073 | -0.322 | 0.0315 ± 0.018 | -0.0275 ± 0.021 | -0.0325 ± 0.059 | -0.043 ± 0.082 | -0.0425 ± 0.026 | -0.168 ± 0.022 | -0.0565 ± 0.079 | -0.29 ± 0.029 | -0.453 ± 0.14 | -0.061 ± 0.013 | -0.046 ± 0.016 | -0.0335 ± 0.0035 | -0.676 ± 0.061
10 | KF3CT:MMP-9 | -0.012 ± 0.017 | -0.016 ± 0.035 | -0.001 ± 0.025 | 0.005 ± 0.03 | 0.0465 ± 0.00071 | -0.197 | -0.0015 ± 0.016 | -0.0105 ± 0.00071 | 0.004 ± 0.013 | 0.0055 ± 0.0078 | 0.0035 ± 0.00071 | 0.0115 ± 0.005 | -0.013 ± 0.014 | -0.0085 ± 0.0035 | -0.0285 ± 0.04 | -0.014 ± 0.031 | -0.073 ± 0.025 | -0.0915 ± 0.03 | -0.035 ± 0.064
